This note sets out measurements from the NIST ThermoML archive (doi:10.1021/je1000878).

± gives the expanded uncertainty stated by the source.

A short description of the data set: cn = amount concentration of the nth substance listed, in mol/dm3. The note with it: 101.3 kPa, Liquid, c1 = 2.

On to `[Cl-].[Na+]` [sodium chloride] + O, for which the viscosity (in general, the internal friction of a fluid under shear) is, setting by setting: (298.15 K) 1.085 ± 0.014 mPa·s; (303.15 K) 0.9761 ± 0.013 mPa·s; (308.15 K) 0.8816 ± 0.012 mPa·s; (313.15 K) 0.8069 ± 0.011 mPa·s; (318.15 K) 0.7426 ± 0.01 mPa·s; (323.15 K) 0.676 ± 0.0095 mPa·s. Further, where the note is “328.15 K”, the viscosity was 0.6257 ± 0.0088 mPa·s.
With `O=[N+]([O-])[O-].[Na+]` [sodium nitrate] + O, the viscosity reads like this: (298.15 K) 1.036 ± 0.014 mPa·s; (303.15 K) 0.9367 ± 0.013 mPa·s; (308.15 K) 0.8519 ± 0.012 mPa·s; (313.15 K) 0.7777 ± 0.011 mPa·s; (318.15 K) 0.7167 ± 0.0099 mPa·s; (323.15 K) 0.6559 ± 0.0092 mPa·s. For the same molecule, the viscosity (328.15 K) is reported as 0.6043 ± 0.0086 mPa·s.
